In patent US10251395B2, “Substituted furano-/thienocycloalkylamino-2-pyrimidine derivatives and use thereof for controlling undesired plant growth” (Bayer CropScience Aktiengesellschaft, priority 2015, dated 2019):

Experiments:
Alopecurus myosuroides [1] = assay: Post-emergence herbicidal effect; type: in vivo; settings: 320 g/ha, assessed visually after about 3 weeks vs untreated controls
How it was run: (§1)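 Seedlings at the one-leaf stage, about 2 to 3 weeks old, are sprayed on their foliage with compound suspended or emulsified in water containing 0.2% wetting agent. After roughly 3 weeks in the greenhouse, injury is estimated visually on a 0 to 100% scale.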

Amaranthus retroflexus [2] = assay: Post-emergence herbicidal effect; type: in vivo; settings: assessed visually after about 3 weeks vs untreated controls
How it was run: as §1

Stellaria media [3] = assay: Post-emergence herbicidal effect; type: in vivo; settings: assessed visually after about 3 weeks vs untreated controls
How it was run: as §1

Echinochloa crus-galli [4] = assay: Post-emergence herbicidal effect; type: in vivo; settings: assessed visually after about 3 weeks vs untreated controls
How it was run: as §1

Setaria viridis [5] = assay: Post-emergence herbicidal effect; type: in vivo; settings: assessed visually after about 3 weeks vs untreated controls
How it was run: as §1

Abutilon theophrasti [6] = assay: Post-emergence herbicidal effect; type: in vivo; settings: assessed visually after about 3 weeks vs untreated controls
How it was run: as §1

Veronica persica [7] = assay: Post-emergence herbicidal effect; type: in vivo; settings: assessed visually after about 3 weeks vs untreated controls
How it was run: as §1

Lolium multiflorum [8] = assay: Post-emergence herbicidal effect; type: in vivo; settings: 320 g/ha, assessed visually after about 3 weeks vs untreated controls
How it was run: as §1

Viola tricolor [9] = assay: Post-emergence herbicidal effect; type: in vivo; settings: assessed visually after about 3 weeks vs untreated controls
How it was run: as §1

Alopecurus myosuroides [10] = assay: Pre-emergence herbicidal effect; type: in vivo; settings: scored visually after 3 weeks
How it was run: (§2)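 Greenhouse pre-emergence test: compound sprayed onto covering soil over sown seeds, assessed by eye after 3 weeks. Scale runs from 0% (like control) to 100% (plants died).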

Amaranthus retroflexus [11] = assay: Pre-emergence herbicidal effect; type: in vivo; settings: scored visually after 3 weeks
How it was run: as §2

Stellaria media [12] = assay: Pre-emergence herbicidal effect; type: in vivo; settings: scored visually after 3 weeks
How it was run: as §2

Echinochloa crus-galli [13] = assay: Pre-emergence herbicidal effect; type: in vivo; settings: scored visually after 3 weeks
How it was run: as §2

Setaria viridis [14] = assay: Pre-emergence herbicidal effect; type: in vivo; settings: scored visually after 3 weeks
How it was run: as §2

Polygonum convolvulus [15] = assay: Pre-emergence herbicidal effect; type: in vivo; settings: scored visually after 3 weeks
How it was run: as §2

Abutilon theophrasti [16] = assay: Pre-emergence herbicidal effect; type: in vivo; settings: scored visually after 3 weeks
How it was run: as §2

Cyperus esculentus = assay: Pre-emergence herbicidal effect; type: in vivo; settings: Dosage 320 g/ha, scored visually after 3 weeks
How it was run: as §2

Matricaria inodora [17] = assay: Pre-emergence herbicidal effect; type: in vivo; settings: scored visually after 3 weeks
How it was run: as §2

Veronica persica [18] = assay: Pre-emergence herbicidal effect; type: in vivo; settings: scored visually after 3 weeks
How it was run: as §2

Viola tricolor [19] = assay: Pre-emergence herbicidal effect; type: in vivo; settings: scored visually after 3 weeks
How it was run: as §2

Ipomoea purpurea = assay: Post-emergence herbicidal effect; type: in vivo; settings: assessed visually after about 3 weeks vs untreated controls
How it was run: as §1

Lolium multiflorum [20] = assay: Pre-emergence herbicidal effect; type: in vivo; settings: Dosage 320 g/ha, scored visually after 3 weeks
How it was run: as §2

Polygonum convolvulus [21] = assay: Post-emergence herbicidal effect; type: in vivo; settings: 320 g/ha, assessed visually after about 3 weeks vs untreated controls
How it was run: as §1

Matricaria inodora [22] = assay: Post-emergence herbicidal effect; type: in vivo; settings: assessed visually after about 3 weeks vs untreated controls
How it was run: as §1

logP (HCOOH) = type: physicochemical; settings: HCOOH
Description: Table 2 (physicochemical characterization of selected synthesis examples)

Structure (SMILES)	post-emergence efficacy AMARE (Amaranthus retroflexus [2]; 320 g/ha)	post-emergence efficacy ECHCG (Echinochloa crus-galli [4]; 320 g/ha)	post-emergence efficacy VERPE (Veronica persica [7]; 80 g/ha)	post-emergence efficacy VERPE (Veronica persica [7]; 320 g/ha)	post-emergence efficacy VIOTR (Viola tricolor [9]; 320 g/ha)	ALOMY pre-emergence efficacy (herbicidal activity) (Alopecurus myosuroides [10]; Dosage 320 g/ha)	AMARE pre-emergence efficacy (herbicidal activity) (Amaranthus retroflexus [11]; Dosage 80 g/ha)	AMARE pre-emergence efficacy (herbicidal activity) (Amaranthus retroflexus [11]; Dosage 320 g/ha)	STEME pre-emergence efficacy (herbicidal activity) (Stellaria media [12]; Dosage 80 g/ha)	STEME pre-emergence efficacy (herbicidal activity) (Stellaria media [12]; Dosage 320 g/ha)	ECHCG pre-emergence efficacy (herbicidal activity) (Echinochloa crus-galli [13]; Dosage 320 g/ha)	SETVI pre-emergence efficacy (herbicidal activity) (Setaria viridis [14]; Dosage 80 g/ha)	SETVI pre-emergence efficacy (herbicidal activity) (Setaria viridis [14]; Dosage 320 g/ha)	POLCO pre-emergence efficacy (herbicidal activity) (Polygonum convolvulus [15]; Dosage 320 g/ha)	CYPES pre-emergence efficacy (herbicidal activity) (Cyperus esculentus)	MATIN pre-emergence efficacy (herbicidal activity) (Matricaria inodora [17]; Dosage 80 g/ha)	MATIN pre-emergence efficacy (herbicidal activity) (Matricaria inodora [17]; Dosage 320 g/ha)	VERPE pre-emergence efficacy (herbicidal activity) (Veronica persica [18]; Dosage 80 g/ha)	VERPE pre-emergence efficacy (herbicidal activity) (Veronica persica [18]; Dosage 320 g/ha)	VIOTR pre-emergence efficacy (herbicidal activity) (Viola tricolor [19]; Dosage 320 g/ha)	also measured
Cc1cc2c(s1)C(Nc1ncc(S(C)(=O)=O)c(N)n1)CCC2 (racemic) [compound 19]	90%	100%	90%	100%	100%	100%	100%	100%	100%	100%	100%	100%	100%	80%	80%	100%	100%	100%	100%	100%	post-emergence efficacy ALOMY (Alopecurus myosuroides [1]): 90%; post-emergence efficacy AMARE (Amaranthus retroflexus [2]; 80 g/ha): 80%; post-emergence efficacy STEME (Stellaria media [3]; 80 g/ha): 80%; post-emergence efficacy STEME (Stellaria media [3]; 320 g/ha): 100%; post-emergence efficacy ECHCG (Echinochloa crus-galli [4]; 80 g/ha): 100%; post-emergence efficacy SETVI (Setaria viridis [5]; 80 g/ha): 90%; post-emergence efficacy SETVI (Setaria viridis [5]; 320 g/ha): 100%; post-emergence efficacy ABUTH (Abutilon theophrasti [6]; 80 g/ha): 90%; post-emergence efficacy ABUTH (Abutilon theophrasti [6]; 320 g/ha): 90%; post-emergence efficacy LOLMU (Lolium multiflorum [8]): 80%; post-emergence efficacy VIOTR (Viola tricolor [9]; 80 g/ha): 90%; ECHCG pre-emergence efficacy (herbicidal activity) (Echinochloa crus-galli [13]; Dosage 80 g/ha): 100%; ABUTH pre-emergence efficacy (herbicidal activity) (Abutilon theophrasti [16]; Dosage 80 g/ha): 80%; ABUTH pre-emergence efficacy (herbicidal activity) (Abutilon theophrasti [16]; Dosage 320 g/ha): 100%; VIOTR pre-emergence efficacy (herbicidal activity) (Viola tricolor [19]; Dosage 80 g/ha): 100%
Cc1cc2c(s1)CCCC2Nc1ncc(S(C)(=O)=O)c(N)n1 (racemic) [compound 59]	90%	100%	90%	100%	80%	80%	100%	100%	100%	100%	100%	80%	100%	100%	80%	100%	100%	100%	100%	100%	post-emergence efficacy AMARE (Amaranthus retroflexus [2]; 80 g/ha): 60%; post-emergence efficacy PHBPU (Ipomoea purpurea; 80 g/ha): 80%; post-emergence efficacy PHBPU (Ipomoea purpurea; 320 g/ha): 80%; post-emergence efficacy ECHCG (Echinochloa crus-galli [4]; 80 g/ha): 20%; post-emergence efficacy SETVI (Setaria viridis [5]; 80 g/ha): 90%; post-emergence efficacy SETVI (Setaria viridis [5]; 320 g/ha): 90%; post-emergence efficacy ABUTH (Abutilon theophrasti [6]; 80 g/ha): 20%; post-emergence efficacy ABUTH (Abutilon theophrasti [6]; 320 g/ha): 20%; post-emergence efficacy VIOTR (Viola tricolor [9]; 80 g/ha): 80%; ECHCG pre-emergence efficacy (herbicidal activity) (Echinochloa crus-galli [13]; Dosage 80 g/ha): 100%; POLCO pre-emergence efficacy (herbicidal activity) (Polygonum convolvulus [15]; Dosage 80 g/ha): 80%; ABUTH pre-emergence efficacy (herbicidal activity) (Abutilon theophrasti [16]; Dosage 80 g/ha): 80%; ABUTH pre-emergence efficacy (herbicidal activity) (Abutilon theophrasti [16]; Dosage 320 g/ha): 100%; LOLMU pre-emergence efficacy (herbicidal activity) (Lolium multiflorum [20]): 90%; VIOTR pre-emergence efficacy (herbicidal activity) (Viola tricolor [19]; Dosage 80 g/ha): 100%
Cc1cc2c(s1)CCCC2Nc1nc(N)c([S+](C)[O-])c(C(F)F)n1 (racemic) [compound 264]	90%	90%	90%	90%	90%	60%	100%	100%	100%	100%	100%	80%	90%	100%	100%	90%	100%	100%	100%	100%	post-emergence efficacy AMARE (Amaranthus retroflexus [2]; 80 g/ha): 90%; post-emergence efficacy STEME (Stellaria media [3]; 80 g/ha): 100%; post-emergence efficacy STEME (Stellaria media [3]; 320 g/ha): 100%; post-emergence efficacy SETVI (Setaria viridis [5]; 320 g/ha): 80%; post-emergence efficacy POLCO (Polygonum convolvulus [21]): 80%; post-emergence efficacy ABUTH (Abutilon theophrasti [6]; 320 g/ha): 90%; post-emergence efficacy MATIN (Matricaria inodora [22]; 80 g/ha): 80%; post-emergence efficacy MATIN (Matricaria inodora [22]; 320 g/ha): 90%; post-emergence efficacy VIOTR (Viola tricolor [9]; 80 g/ha): 90%; ALOMY pre-emergence efficacy (herbicidal activity) (Alopecurus myosuroides [10]; Dosage 80 g/ha): 60%; LOLMU pre-emergence efficacy (herbicidal activity) (Lolium multiflorum [20]): 60%; VIOTR pre-emergence efficacy (herbicidal activity) (Viola tricolor [19]; Dosage 80 g/ha): 100%
O=S1(=O)CCCc2nc(N[C@@H]3CCCc4sccc43)ncc21 [compound 73]	80%	100%	80%	100%	60%	90%	100%	100%	100%	100%	100%	80%	100%	100%	100%	100%	100%	100%	100%	100%	post-emergence efficacy STEME (Stellaria media [3]; 80 g/ha): 90%; post-emergence efficacy STEME (Stellaria media [3]; 320 g/ha): 100%; post-emergence efficacy MATIN (Matricaria inodora [22]; 80 g/ha): 100%; post-emergence efficacy MATIN (Matricaria inodora [22]; 320 g/ha): 100%; ALOMY pre-emergence efficacy (herbicidal activity) (Alopecurus myosuroides [10]; Dosage 80 g/ha): 80%; ECHCG pre-emergence efficacy (herbicidal activity) (Echinochloa crus-galli [13]; Dosage 80 g/ha): 100%; POLCO pre-emergence efficacy (herbicidal activity) (Polygonum convolvulus [15]; Dosage 80 g/ha): 100%; LOLMU pre-emergence efficacy (herbicidal activity) (Lolium multiflorum [20]): 100%; logP (HCOOH) (logP (HCOOH)): oily; logP (HCOOH): 2.38;
